Test results taken from US8017772B2, “Substituted tetrahydropyrrolopyrazine compounds and the use thereof in the treatment and/or inhibition of pain” (Gruenenthal GmbH, priority 2006, dated 2011).
pEC50: −log10 of the molar value.

Each compound was assayed against T1, hKCNQ2/3 (Homo sapiens, UniProt O43525+O43526) (assay: Fluorescence assay using a voltage sensitive dye (BMG)). Conditions: CHO-K1 cells expressing KCNQ2/3.
Format: cell-based
Method: 11. Biological Data 12. Fluorescence Assay Using a Voltage Sensitive Dye
Human CHO-K1 cells expressing KCNQ2/3 channels are cultivated adherently at 37° C., 5% CO2 and 95% humidity in cell culture bottles (e.g. 80 cm^2 TC flasks, Nunc) with MEM Alpha Medium (1×, liquid, Invitrogen, #22571), 10% fetal calf serum (FCS) (Invitrogen, #10270-106, heat-inactivated) and the necessary selection antibiotics.
Before being sown out for the measurements, the cells are washed with a 1×DPBS buffer without Ca^2+/Mg^2+ (e.g. Invitrogen, #14190-094) and detached from the bottom of the culture vessel by means of Accutase (PAA Laboratories, #L11-007) (incubation with Accutase for 15 min at 37° C.). The cell count then present is determined using a CASY™ cell counter (TCC model, Schärfe System) in order subsequently to apply 20,000 cells/well/100 μl of the described nutrient medium to 96-well measuring plates of the Corning™ CellBIND™ type (Flat Clear Bottom Black Polystyrene Microplates, #3340). Incubation is then carried out for one hour at room temperature, without gassing or adjusting the humidity, followed by incubation for 24 hours at 37° C., 5% CO2 and 95% humidity.
The voltage-sensitive fluorescent dye from the Membrane Potential Assay Kit (Red™ Bulk format part R8123 for FLIPR, Molecular Devices™) is prepared by dissolving the contents of a vessel Membrane Potential Assay Kit Red Component A in 200 ml of extracellular buffer (ES buffer, 120 mM NaCl, 1 mM KCl, 10 mM HEPES, 2 mM CaCl2, 2 mM MgCl2, 10 mM glucose; pH 7.4). After removal of the nutrient medium, the cells are washed with 200 μl of ES buffer, then covered with a layer of 100 μl of the dye solution prepared above and incubated for 45 min at room temperature with the exclusion of light.
The fluorescence measurements are carried out with a BMG Labtech FLUOstar™ or BMG Labtech POLARstar™ instrument (525 nm excitation, 560 nm emission, Bottom Read mode). After incubation of the dye, […] of the test substances in the desired concentrations, or 50 μl of ES buffer for control purposes, are introduced into separate cavities of the measuring plate and incubated for 30 min at room temperature while being shielded from light. The fluorescence intensity of the dye is then measured for 5 min and the fluorescence value F1 of each well is thus determined at a given, constant time. 15 μl of a […] KCl solution ([…]) are then added to each well. The change in fluorescence is subsequently measured until all the relevant measured values have been obtained (mainly 5-30 min). At a given time after KCl application, a fluorescence value F2 is determined, in this case at the time of the fluorescence peak.
For calculation, the fluorescence intensity F2 is compared with the fluorescence intensity F1, and the agonistic activity of the target compound on the potassium channel is determined therefrom. F2 and F1 are calculated as follows:
[formula] In order to determine whether a substance has an agonistic effect,
[formula] for example, can be compared with
[formula] determined by adding to the reaction batch only the buffer solution instead of the substance to be tested, determining the value F1K of the fluorescence intensity, adding the potassium ions as described above and measuring a value F2K of the fluorescence intensity. Then F2K and F1K are calculated as follows: […]
A substance has an agonistic activity on the potassium channel when
[formula] is greater than
[formula] Independently of the comparison of
[formula] it is also possible to conclude that a target compound has agonistic activity if an increase in
[formula] is to be observed as the dosage of the target compound increases. Calculations of EC50 and IC50 values are carried out with the aid of “Prism 4” software (GraphPad Software™). The following compounds were tested by way of example: […]

pEC50	Compound
5.53	O=C(CN1CCn2cccc2C1c1ccc2c(c1)OCCO2)NCc1cccc(C(F)(F)F)c1 (centres unmarked) [Example 8, 2-[1-(2,3-dihydro-benzo[1,4]dioxin-6-yl)-3,4-dihydro-1H-pyrrolo[1,2-a]pyrazin-2-yl]-N-(3-trifluoromethyl-benzyl)-acetamide]
5.53	CC(NC(=O)CCC(=O)N1CCn2cccc2C1c1ccccc1)c1cccc(C(F)(F)F)c1 (centres unmarked) [Example 81, 4-oxo-4-(1-phenyl-3,4-dihydropyrrolo[1,2-a]pyrazin-2(1H)-yl)-N-(1-(3-(trifluoromethyl)phenyl)ethyl)butanamide]
5.28	CC(NC(=O)CCC(=O)N1CCn2cccc2C1c1cccs1)c1cccc(C(F)(F)F)c1 (centres unmarked) [Example 82, 4-oxo-4-(1-(thiophen-2-yl)-3,4-dihydropyrrolo[1,2-a]pyrazin-2(1H)-yl)-N-(1-(3-(trifluoromethyl)phenyl)ethyl)butanamide]
4.84	O=C(CCC(=O)N1CCn2cccc2C1c1ccccc1)NCc1cccs1 (centres unmarked) [Example 83, 4-oxo-4-(1-phenyl-3,4-dihydropyrrolo[1,2-a]pyrazin-2(1H)-yl)-N-(thiophen-2-ylmethyl)butanamide]
4.94	CC1c2cccn2CCN1C(=O)CCC(=O)NCc1cccc(C(F)(F)F)c1 (centres unmarked) [Example 86, 4-(1-methyl-3,4-dihydropyrrolo[1,2-a]pyrazin-2(1H)-yl-4-oxo-N-(3-trifluoromethyl)benzyl)butanamide]
5.34	O=C(CC(=O)N1CCn2cccc2C1c1ccccc1)NCc1cccc(C(F)(F)F)c1 (centres unmarked) [Example 89, 3-oxo-3-(1-phenyl-3,4-dihydropyrrolo[1,2-a]pyrazin-2(1H)-yl)-N-(3-(trifluoromethyl)benzyl)propanamide]

Same assay, conditions: agonistic activity at 10 μM, CHO-K1 cells expressing KCNQ2/3; read-out: BMG AG %@10 μm

activation at 10 µM	Compound
69%	O=C(CCC(=O)N1CCn2cccc2C1c1ccc(Cl)cc1)NCc1cccc(C(F)(F)F)c1 (centres unmarked) [Example 1, 4-[1-(4-chloro-phenyl)-3,4-dihydro-1H-pyrrolo[1,2-a]pyrazin-2-yl]-4-oxo-N-(3-trifluoromethyl-benzyl)-butyramide]
28%	Cc1cccc(C2c3cccn3CCN2C(=O)CCC(=O)NCc2cccc(C(F)(F)F)c2)c1 (centres unmarked) [Example 5, 4-oxo-4-(1-m-tolyl-3,4-dihydro-1H-pyrrolo[1,2-a]pyrazin-2-yl)-N-(3-trifluoromethyl-benzyl)-butyramide]
21%	COc1cccc(C2c3cccn3CCN2CC(=O)NCc2cccc(C(F)(F)F)c2)c1 (centres unmarked) [Example 20, 2-(1-(3-methoxyphenyl)-3,4-dihydropyrrolo[1,2-a]pyrazin-2(1H)-yl)-N-(3-(trifluoromethyl)benzyl)acetamide]
24%	Cc1ccc(C2c3cccn3CCN2CC(=O)NCc2cccc(C(F)(F)F)c2)cc1 (centres unmarked) [Example 37, 2-(1-p-tolyl-3,4-dihydro-1H-pyrrolo[1,2-a]pyrazin-2-yl)-N-(3-trifluoromethyl-benzyl)-acetamide]
10%	CC(NC(=O)CCC(=O)N1CCn2cccc2C1Cc1ccccc1)c1cccc(C(F)(F)F)c1 (centres unmarked) [Example 80, 4-(1-benzyl-3,4-dihydropyrrolo[1,2-a]pyrazin-2(1H)-yl)-4-oxo-N-(1-(3-(trifluoromethyl)phenyl)ethyl)butanamide]
0%	CC1c2cccn2CCN1C(=O)CCC(=O)NCc1ccc(F)cc1 (centres unmarked) [Example 85, N-(4-fluorobenzyl)-4-(1-methyl-3,4-dihydropyrrolo[1,2-a]pyrazin-2(1H)-yl)-4-oxobutanamide]
3%	O=C(CCc1cccc(C(F)(F)F)c1)NCC(=O)N1CCn2cccc2C1c1ccccc1 (centres unmarked) [Example 87]
5%	O=C(CCCc1ccccc1)NCC(=O)N1CCn2cccc2C1c1ccccc1 (centres unmarked) [Example 88, N-(2-oxo-2-(1-phenyl-3,4-dihydropyrrolo[1,2-a]pyrazin-2(1H)-yl)ethyl)-4-phenylbutanamide]
-20%	O=C(CC(=O)N1CCn2cccc2C1c1ccccc1)Nc1cccc(C(F)(F)F)c1 (centres unmarked) [Example 90]
9%	O=C(CN1CCn2cccc2C1c1ccccc1)NCc1cccc(C(F)(F)F)c1 (centres unmarked) [Example 91, 2-(1-phenyl-3,4-dihydropyrrolo[1,2-a]pyrazin-2(1H)-yl)-N-(3-(trifluoromethyl)benzyl)acetamide]
7%	O=C(/C=C/c1ccccc1F)NCC(=O)N1CCn2cccc2C1c1ccccc1 (centres unmarked) [Example 92, (E)-3-(2-fluorophenyl)-N-(2-oxo-2-(1-phenyl-3,4-dihydropyrrolo[1,2-a]pyrazin-2(1H)-yl)ethyl)acrylamide]

Each compound was assayed against T1, hKCNQ2/3 (assay: Voltage clamp (patch-clamp) measurements on stably transfected hKCNQ2/3 CHO-K1 cell line). Conditions: potential −40 mV, relative to retigabine (RG = 1).
Format: cell-based
Method: Voltage Clamp Measurements
In order to confirm a KCNQ2/3-agonistic action of the substances electrophysiologically, patch-clamp measurements (Hamill et al., 1981) were carried out in voltage clamp mode on a stably transfected hKCNQ2/3 CHO-K1 cell line. After formation of the gigaseal, the cells were first clamped at a holding potential of −60 mV. Thereafter, depolarizing voltage jumps were applied up to a potential of +20 mV (increment: 20 mV, duration: 1 second) in order to confirm the functional expression of KCNQ2/3-typical currents. The testing of the substances was carried out at a potential of −40 mV. The increase in current induced by retigabine (10 at −40 mV was first recorded as a positive control on each cell. After complete washing out of the retigabine effect (duration: 80 s), the test substance was applied. • See: Hamill O P, Marty A, Neher E, Sakmann B, Sigworth F J.: Improved patch-clamp techniques for high-resolution current recording from cells and cell-free membrane patches. Pflugers Arch. 1981 August; 391(2):85-100.

MAN rel eff @ 10 μM [RG = 1]	Compound
0.25	CC(NC(=O)CCC(=O)N1CCn2cccc2C1c1ccccc1)c1cccc(C(F)(F)F)c1 (centres unmarked) [Example 81, 4-oxo-4-(1-phenyl-3,4-dihydropyrrolo[1,2-a]pyrazin-2(1H)-yl)-N-(1-(3-(trifluoromethyl)phenyl)ethyl)butanamide]
0.11	CC(NC(=O)CCC(=O)N1CCn2cccc2C1c1cccs1)c1cccc(C(F)(F)F)c1 (centres unmarked) [Example 82, 4-oxo-4-(1-(thiophen-2-yl)-3,4-dihydropyrrolo[1,2-a]pyrazin-2(1H)-yl)-N-(1-(3-(trifluoromethyl)phenyl)ethyl)butanamide]
−0.46	O=C(CC(=O)N1CCn2cccc2C1c1ccccc1)Nc1cccc(C(F)(F)F)c1 (centres unmarked) [Example 90]
